Calls of active or inactive are those of the source. The rule behind the calls is not given here.
Experiments:
SH-SY5Y [1] = experiment: Neuroprotective activity against 6-OHDA induced apoptosis in human SH-SY5Y cells assessed as reduction in cytochrome-c level pretreated for 1 hr followed by 6-OHDA addition after 6 to 24 hrs by Western blot analysis; assay type: functional, cell-based
SH-SY5Y [2] = experiment: Neuroprotective activity against 6-OHDA induced apoptosis in human SH-SY5Y cells assessed as increase in Bcl-2 expression pretreated for 1 hr followed by 6-OHDA addition after 6 to 24 hrs by Western blot analysis; assay type: functional, cell-based
[3] = target: RAC-alpha serine/threonine-protein kinase (Homo sapiens) (UniProt P31749); experiment: Inhibition of 6-OHDA induced AKT phosphorylation in human SH-SY5Y cells at 2.5 to 10 uM pretreated for 1 hr followed by 6-OHDA addition after 1 hr by Western blot analysis; assay type: cell-based
SH-SY5Y [4] = experiment: Neuroprotective activity against 6-OHDA induced toxicity in human SH-SY5Y cells assessed as reduction in nuclear necrosis at 2.5 to 10 uM pretreated for 1 hr followed by 6-OHDA addition after 24 hrs by Hoechst 33258/propidium iodide staining based fluorescence microscopic analysis; assay type: functional, cell-based
SH-SY5Y [5] = experiment: Neuroprotective activity against 6-OHDA induced apoptosis in human SH-SY5Y cells assessed as reduction in Bax expression pretreated for 1 hr followed by 6-OHDA addition after 6 to 24 hrs by Western blot analysis; assay type: functional, cell-based
SH-SY5Y [6] = experiment: Cytotoxicity against human SH-SY5Y cells assessed as effect on cell viability at 0.5 to 10 uM after 24 hrs by MTT assay; assay type: cell-based
SH-SY5Y [7] = experiment: Neuroprotective activity against 6-OHDA induced apoptosis in human SH-SY5Y cells assessed as reduction in cleaved caspase-3 level at 2.5 to 10 uM pretreated for 1 hr followed by 6-OHDA addition after 6 to 24 hrs by Western blot analysis; assay type: functional, cell-based
SH-SY5Y [8] = experiment: Neuroprotective activity against 6-OHDA induced toxicity in human SH-SY5Y cells assessed as reduction in nuclear fragmentation at 2.5 to 10 uM pretreated for 1 hr followed by 6-OHDA addition after 24 hrs by Hoechst 33258/propidium iodide staining based fluorescence microscopic analysis; assay type: functional, cell-based
SH-SY5Y [9] = experiment: Neuroprotective activity against 6-OHDA induced toxicity in human SH-SY5Y cells assessed as reduction in intracellular ROS accumulation at 1 to 10 uM pretreated for 1 hr followed by 6-OHDA addition after 1 to 6 hrs by DCFH-DA dye based fluorescence spectrophotometric method; assay type: functional, cell-based
SH-SY5Y [10] = experiment: Neuroprotective activity against 6-OHDA induced apoptosis in human SH-SY5Y cells assessed as reduction in cleaved caspase-9 level at 2.5 to 10 uM pretreated for 1 hr followed by 6-OHDA addition after 6 to 24 hrs by Western blot analysis; assay type: functional, cell-based
SH-SY5Y [11] = experiment: Neuroprotective activity against 6-OHDA induced apoptosis in human SH-SY5Y cells assessed as reduction in cleaved PARP level at 2.5 to 10 uM pretreated for 1 hr followed by 6-OHDA addition after 6 to 24 hrs by Western blot analysis; assay type: functional, cell-based
[12] = target: c-Jun N-terminal kinase, JNK (Homo sapiens) (UniProt P45983+P53779+P45984); experiment: Inhibition of 6-OHDA induced JNK phosphorylation in human SH-SY5Y cells at 2.5 to 10 uM pretreated for 1 hr followed by 6-OHDA addition after 1 hr by Western blot analysis; assay type: cell-based
[13] = target: Glycogen synthase kinase-3 beta (Homo sapiens) (UniProt P49841); experiment: Inhibition of 6-OHDA induced GSK3beta phosphorylation in human SH-SY5Y cells at 2.5 to 10 uM pretreated for 1 hr followed by 6-OHDA addition after 1 hr by Western blot analysis; assay type: cell-based
SH-SY5Y [14] = experiment: Neuroprotective activity against 6-OHDA induced toxicity in human SH-SY5Y cells assessed as reduction in cell viability pretreated for 30 mins followed by 6-OHDA addition after 24 hrs by MTT assay; assay type: functional, cell-based
SH-SY5Y [15] = experiment: Cytotoxicity against human SH-SY5Y cells assessed as reduction in LDH release at 0.5 to 10 uM after 24 hrs by spectrophotometric method; assay type: cell-based
[16] = target: Mitogen-activated protein kinase; ERK1/ERK2 (Homo sapiens) (UniProt P27361+P28482); experiment: Inhibition of 6-OHDA induced ERK1/2 phosphorylation in human SH-SY5Y cells at 2.5 to 10 uM pretreated for 1 hr followed by 6-OHDA addition after 1 hr by Western blot analysis; assay type: cell-based
SH-SY5Y [17] = experiment: Neuroprotective activity against 6-OHDA induced toxicity in human SH-SY5Y cells assessed as reduction in nuclear condensation at 2.5 to 10 uM pretreated for 1 hr followed by 6-OHDA addition after 24 hrs by Hoechst 33258/propidium iodide staining based fluorescence microscopic analysis; assay type: functional, cell-based
SH-SY5Y [18] = experiment: Neuroprotective activity against 6-OHDA induced toxicity in human SH-SY5Y cells assessed as reduction in mitochondrial membrane potential loss at 1 to 10 uM pretreated for 1 hr followed by 6-OHDA addition after 1 to 6 hrs by rhodamine123 dye based fluorescence microscopic analysis; assay type: functional, cell-based
[19] = target: MAP kinase p38 (Homo sapiens) (UniProt O15264+Q15759+Q16539+P53778); conditions: SH-SY5Y, 2.5 to 10 uM
Description: Inhibition of 6-OHDA induced p38 phosphorylation in human SH-SY5Y cells at 2.5 to 10 uM pretreated for 1 hr followed by 6-OHDA addition after 1 hr by Western blot analysis

SH-SY5Y [20] = experiment: Neuroprotective activity against 6-OHDA induced toxicity in human SH-SY5Y cells assessed as reduction in LDH release pretreated for 30 mins followed by 6-OHDA addition after 24 hrs by spectrophotometric method; assay type: functional, cell-based
SH-SY5Y [21] = experiment: Neuroprotective activity against 6-OHDA induced toxicity in human SH-SY5Y cells assessed as reduction in cell shrinkage at 2.5 to 10 uM pretreated for 1 hr followed by 6-OHDA addition after 24 hrs by Hoechst 33258/propidium iodide staining based fluorescence microscopic analysis; assay type: functional

Glycogen synthase kinase-3 beta (Homo sapiens), sequence (P49841 whole entry, looked up): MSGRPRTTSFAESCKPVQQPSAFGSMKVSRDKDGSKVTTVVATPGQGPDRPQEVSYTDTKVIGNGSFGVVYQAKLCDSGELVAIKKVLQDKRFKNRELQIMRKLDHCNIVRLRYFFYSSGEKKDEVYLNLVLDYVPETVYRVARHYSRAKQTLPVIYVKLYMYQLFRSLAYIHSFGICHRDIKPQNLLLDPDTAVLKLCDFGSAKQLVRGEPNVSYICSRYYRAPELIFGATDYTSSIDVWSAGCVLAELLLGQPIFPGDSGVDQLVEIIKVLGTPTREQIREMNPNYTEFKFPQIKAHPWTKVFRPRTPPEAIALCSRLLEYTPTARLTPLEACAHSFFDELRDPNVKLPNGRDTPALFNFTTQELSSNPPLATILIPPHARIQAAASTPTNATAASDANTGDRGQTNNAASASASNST
Mitogen-activated protein kinase; ERK1/ERK2 (Homo sapiens), sequence (P27361 whole entry, looked up): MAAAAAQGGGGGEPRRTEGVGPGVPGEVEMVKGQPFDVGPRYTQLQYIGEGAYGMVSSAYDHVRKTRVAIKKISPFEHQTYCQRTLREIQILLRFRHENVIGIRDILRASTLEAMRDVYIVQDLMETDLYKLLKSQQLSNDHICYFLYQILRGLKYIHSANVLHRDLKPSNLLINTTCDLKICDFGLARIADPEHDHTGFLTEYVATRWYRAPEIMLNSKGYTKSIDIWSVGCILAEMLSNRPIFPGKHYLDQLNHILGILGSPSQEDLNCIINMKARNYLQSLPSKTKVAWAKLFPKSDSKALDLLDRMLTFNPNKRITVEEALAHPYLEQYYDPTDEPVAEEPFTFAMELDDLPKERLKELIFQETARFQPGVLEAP
Mitogen-activated protein kinase; ERK1/ERK2 (Homo sapiens), sequence (P28482 whole entry, looked up): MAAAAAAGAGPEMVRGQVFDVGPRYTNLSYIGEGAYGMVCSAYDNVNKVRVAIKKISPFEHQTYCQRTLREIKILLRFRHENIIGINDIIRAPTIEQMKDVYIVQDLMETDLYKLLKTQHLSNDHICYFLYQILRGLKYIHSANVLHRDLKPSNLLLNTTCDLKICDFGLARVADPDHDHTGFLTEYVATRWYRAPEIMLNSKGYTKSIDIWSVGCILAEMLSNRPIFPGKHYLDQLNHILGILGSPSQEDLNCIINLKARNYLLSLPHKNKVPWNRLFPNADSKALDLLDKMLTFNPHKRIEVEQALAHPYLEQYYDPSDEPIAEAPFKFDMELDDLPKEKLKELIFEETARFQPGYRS
RAC-alpha serine/threonine-protein kinase (Homo sapiens), sequence (P31749 whole entry): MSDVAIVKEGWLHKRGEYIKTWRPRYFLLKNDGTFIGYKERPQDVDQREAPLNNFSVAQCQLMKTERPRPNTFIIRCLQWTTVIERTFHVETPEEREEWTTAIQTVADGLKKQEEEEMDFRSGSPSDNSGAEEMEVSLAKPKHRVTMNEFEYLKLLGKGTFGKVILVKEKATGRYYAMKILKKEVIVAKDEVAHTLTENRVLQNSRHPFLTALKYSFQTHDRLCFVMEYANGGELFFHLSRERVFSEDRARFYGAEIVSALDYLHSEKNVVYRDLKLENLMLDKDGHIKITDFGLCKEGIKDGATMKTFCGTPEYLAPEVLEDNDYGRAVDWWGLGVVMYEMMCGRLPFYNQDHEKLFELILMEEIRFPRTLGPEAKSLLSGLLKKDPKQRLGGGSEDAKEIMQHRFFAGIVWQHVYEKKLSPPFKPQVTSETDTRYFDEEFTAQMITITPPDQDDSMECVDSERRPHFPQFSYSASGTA

inhibition [3]: Active
inhibition [12]: Active
inhibition [13]: Active
inhibition [16]: inactive
inhibition [19]: Active
Structure (SMILES): COc1ccc(-c2cc(=O)c3c(O)cc(O)cc3o2)cc1 [ACACETIN]
Activity (SH-SY5Y [1]): Dose-dependent effect
Activity (SH-SY5Y [2]): Dose-dependent effect
Activity (SH-SY5Y [4]): Active
Activity (SH-SY5Y [5]): Dose-dependent effect
Activity (SH-SY5Y [6]): Non-Toxic
Activity (SH-SY5Y [7]): Active
Activity (SH-SY5Y [8]): Active
Activity (SH-SY5Y [9]): Active
Activity (SH-SY5Y [10]): Active
Activity (SH-SY5Y [11]): Active
Activity (SH-SY5Y [14]): Dose-dependent effect
Activity (SH-SY5Y [15]): Non-Toxic
Activity (SH-SY5Y [17]): Active
Activity (SH-SY5Y [18]): Active
Activity (SH-SY5Y [20]): Dose-dependent effect
Activity (SH-SY5Y [21]): Active

Reference: ChEMBL document CHEMBL4177639, “Acacetin inhibits neuronal cell death induced by 6-hydroxydopamine in cellular Parkinson's disease model” (Bioorg Med Chem Lett, 2017)
